Data from ChEMBL document CHEMBL1135249, “Probing the overlap of chorismate mutase and prephenate dehydrogenase sites in the escherichia coli T-protein: a dehydrogenase-selective inhibitor” (Bioorg Med Chem Lett, 2002).
pIC50, pKi: −log10 of the molar value.

Experiments:
[1] = Tested for its inhibitory activity against the enzyme chorismate mutase (CM) in Escherichia coli T-protein
[2] = Tested for its inhibitory activity against the enzyme prephenate dehydrogenase (PDH) in Escherichia coli T-protein
[3] = Tested for its inhibitory activity against the enzyme chorismate mutase (CM) in Escherichia coli T-protein; no effect up to 1 mM
[4] = Tested for the inhibition against prephenate dehydrogenase; design: species or system Escherichia coli

With `O=C(O)[C@]12C[C@H]3C[C@H](C[C@H](C3)C1)C2` the pKi [1] was 3.37 and the pKi [2] was 3.51.

`O=P(O)(O)C12C[C@H]3C[C@@H](C1)C[C@@H](C2)C3` showed a pKi [1] of 3.70 and a pKi [2] of 3.85.

In the case of `C=C(O[C@@H]1C=C(C(=O)O)CCC1O)C(=O)O` (stereo partly specified), the pKi [1] was 3.37 and the pKi [2] was 3.23.

In the case of `C=C(O[C@@H]1C=C(C(=O)O)C(O)C(O)[C@H]1O)C(=O)O` (stereo partly specified), the pKi [1] was 3.39 and the pKi [2] was 3.96.

For `O=C(O)[C@@H]1Cc2cccc3cccc(c23)C[C@H]1C(=O)O` (racemic), the Ki [3] was “no effect up to 1 mM”, the pIC50 [4] was 3.60 and the pKi [2] was 3.67.
